Measurements reported in patent US20230248706A1, “METHODS AND COMPOSITIONS FOR THE TREATMENT OF COVID-19 AND ASSOCIATED RESPIRATORY DISTRESS AND MULTI-ORGAN FAILURE, SEPSIS, ACUTE RESPIRATORY DISTRESS SYNDROME, AND CARDIOVASCULAR DISEASES” (priority 2020, published 2023).
pIC50: −log10 of the molar value.

Tests used:
pulmonary vascular ECs = assay: In vivo BrdU labeling of lung endothelial cell proliferation; parameters: species or system mouse; conditions: aged mice, treated at 24 and 48h post-LPS
Description: Cell proliferation. At 8 h prior to tissue collection, BrdU (Sigma-Aldrich, St Louis, Mo.) was injected i.p. into mice at 50 mg/kg BW. Mouse lung cryosections were stained overnight with anti-BrdU (1:3, BD Biosciences, San Jose, Calif.) and incubated with Alexa Fluo 488-conjugated secondary antibody (1:200, Life Technologies, Grand Island, N.Y.). Lung vascular ECs were immunostained with anti-vWF (1:300, Sigma-Aldrich, St Louis, Mo.) and anti-CD31 (1:100, BD Biosciences, San Jose, Calif.) antibodies at 4° C. then the sections were incubated with Alexa Fluor 594-conjugated secondary antibodies (1:200, Life Technologies, Grand Island, N.Y.). The nuclei were counterstained with DAPI (Life Technologies, Grand Island, N.Y.). Three consecutive cryosections from each mouse lung were examined, the average number of BrdU+ nuclei was used (24, 34).

FoxM1 = assay: Quantitative RT-PCR of FoxM1 expression in lung after LPS challenge; assay type: in vivo, mouse
Description: (§1) Molecular analysis. Total RNA was isolated using an RNeasy Mini kit including DNase I digestion (Qiagen, Valencia, Calif.). Following reverse transcription, quantitative RT-PCR analysis was performed using a sequence detection system (ABI ViiA 7 system; Life Technologies, Grand Island, N.Y.). The following primers sets were used for analysis: mouse FoxM1 primers, 5′-[…]-3′ (SEQ ID NO: 1) and 5′-[…]-3′ (SEQ ID NO: 2); mouse cyclophilin primers, 5′-[…]-3′ (SEQ ID NO: 3) and 5′-[…]-3′ (SEQ ID NO: 4). Primers for mouse Cdc25c, Ccna2, Ccnb1, Tnf, Il6, Nos2, and Icam1 were purchased from Qiagen. The mouse gene expression was normalized to cyclophilin.

LPS-challenged mice [1] = assay: Lung myeloperoxidase (MPO) activity after LPS challenge; assay type: in vivo, mouse
Description: (§2) To induce endotoxemia, mice received a single dose of LPS (0.25-2.5 mg/kg BW, Escherichia coli 055:B5, Santa Cruz, St. Dallas, Tex.) by i.p. injection. The LPS dose was dependent on the aging of the mice (3-9 mo old, 2.5 mg/kg; 19-21 mo. old, 1.0 mg/kg; 25 mo. old, 0.25 mg/kg). All mice were anesthetized with ketamine/xylazine (100/5 mg/kg BW, i.p.) prior to tissue collection. For the survival study, mice were treated with a single dose of LPS (1.5 mg/kg, i.p.) and monitored for 7 days.
Myeloperoxidase assay. Following perfusion free of blood, lung tissues were collected and homogenized in 50 mmol/L phosphate buffer. Homogenates were centrifuged at 15,000×g for 20 minutes at 4° C. The pellets were resuspended in phosphate buffer containing 0.5% hexadecyl trimethylammonium bromide and subjected to a cycle of freezing and thawing. Subsequently, the pellets were homogenized and the homogenates were centrifuged again. Absorbance was measured at 460 nm every 15 secs for 3 minutes and data expressed as ΔOD460/min/g lung tissue (26, 34).

LPS-challenged mice [2] = assay: Survival after LPS challenge; assay type: in vivo, mouse; conditions: LPS 1.5 mg/kg i.p., treated at 24 and 48h post-LPS
Description: To induce endotoxemia, mice received a single dose of LPS (0.25-2.5 mg/kg BW, Escherichia coli 055:B5, Santa Cruz, St. Dallas, Tex.) by i.p. injection. […] All mice were anesthetized with ketamine/xylazine (100/5 mg/kg BW, i.p.) prior to tissue collection. […]

Cdc25c, Ccna2, and Ccnb1 = assay: Quantitative RT-PCR of FoxM1 target genes essential for cell cycle progression in lung; assay type: in vivo, mouse; conditions: aged mice, treated at 24 and 48h post-LPS
Description: as §1

LPS-challenged mice [3] = assay: EBA extravasation assay (lung vascular permeability) after LPS challenge; assay type: in vivo, mouse; conditions: for vascular repair (EBA assay): 96h post-LPS; for vascular repair (EBA flux): 72h post-LPS
Description: as §2
Vascular permeability assessment. The Evans blue dye-conjugated albumin (EBA) extravasation assay was performed as previously described (26, 34). Briefly, mice were retro-orbitally injected with EBA at a dose of 20 mg/kg BW at 30 minutes prior to tissue collection. Lungs were perfused free of blood with PBS, blotted dry and weighed. Next, lung tissues were homogenized in 1 ml PBS and incubated with 2 volumes of formamide at 60° C. for 18 hours. The homogenates were then centrifuged at 10,000×g for 30 minutes. The optical density of the supernatant was determined at 620 nm and 740 nm. The extravasated EBA in lung homogenate was presented as μg of Evans blue dye per g lung tissue.

young adult mice = conditions: 1 mg/kg i.p., young adult mice (8-10 weeks old), previous study; cited from earlier work
TNF-α = assay: Quantitative RT-PCR of TNF-α expression in lung after LPS challenge; assay type: in vivo, mouse; conditions: aged mice (21 mo. old), DMOG at 12 or 24h post-LPS, 72h post-LPS
Description: as §1

IL-6 = assay: Quantitative RT-PCR of IL-6 expression in lung after LPS challenge; assay type: in vivo, mouse
Description: as §1

pro-inflammatory genes = assay type: in vivo, mouse; conditions: aged mice (21 mo. old), 25 mg/kg oral at 24h post-LPS (FIG. 13 legend)
Description: as §1

[4] = tested on: human lung microvascular ECs (HLMVECs); assay: Apoptosis (TUNEL) in senescent HLMVECs treated with TNF-α/CHX; conditions: senescent HLMVECs at passage 16
Description: (§3) (D) Quantification of ROS production. (E) Representative micrographs of TUNEL staining (green) of human lung ECs.
(§4) To further understand the pathogenic role of aging-induced NOX2 in promoting inflammatory lung injury in aged mice, we cultured human lung microvascular ECs (HLMVECs) and passaged many times.

[5] = tested on: human lung microvascular ECs (HLMVECs); assay: ROS production (DCF staining) in senescent HLMVECs treated with TNF-α/CHX; conditions: senescent HLMVECs at passage 16, TNF-α and Cycloheximide (CHX) treatment
Description: as §3, §4

HIF-response element = assay: High-throughput screening of Prestwick library in stable cell line containing the HIF-response element; assay type: cell-based; conditions: Prestwick Chemical Library of FDA-approved drugs (1280 compounds)
[6] = cited from earlier work
p53 = conditions: in response to DNA damaging agents; cited from earlier work
NADase = conditions: cited from earlier work
HDAC = conditions: cited from earlier work
[7] = young adult mice (3-5 mo. old), LPS 2.5 mg/kg i.p., 0.25, 0.5, and 5 mg/kg i.p. at 4h post-LPS, 24h post-LPS
[8] = aged mice (21 mo. old), DMOG 8 mg/mouse i.p. at 12 or 24h post-LPS, 72h post-LPS
[9] = aged mice (21 mo. old), LPS 0.5 mg/kg i.p., 25 mg/kg oral at 24h post-LPS, 72h post-LPS
[10] = aged mice (21.5 mos. old), LPS 2 mg/kg i.p., 120 mg/kg oral at 2 h post-LPS, 24h post-LPS
[11] = aged WT mice (20 months), 7 mg/kg i.p. at 1 h prior to LPS, 72h post-LPS

Nc1ncn([C@H]2CC(O)[C@@H](CO)O2)c(=O)n1 (stereo in doubt) [Decitabine, 5-Aza-2′-deoxycytidine]
pulmonary vascular EC proliferation (BrdU immunostaining) (pulmonary vascular ECs): drastically increased
FoxM1 expression (FoxM1; aged mice, treated at 24 and 48h post-LPS, 72h post-LPS, compared to vehicle-treated mice): markedly induced
lung MPO activity (LPS-challenged mice [1]; aged mice (21-22 mos. old), 0.2 mg/kg i.p. at 24 h and 48h post-LPS, 96h post-LPS): returned to basal levels
lung MPO activity (LPS-challenged mice [1]; [7]): no effect
inflammation resolution (MPO assay) (LPS-challenged mice [1]; young adult mice (3 mos. old), 0.2 mg/kg i.p. at 24 and 48h post-LPS, 96h post-LPS): didn't promote
mice survived (LPS-challenged mice [2]; aged (20-22 mos. old) WT mice, monitored for 96h): 80%
survival of aged Foxm1 KO mice (LPS-challenged mice [2]; aged Foxm1 EC-specific knockout mice): no protective effects
expression of FoxM1 target genes essential for cell cycle progression (Cdc25c, Ccna2, and Ccnb1): markedly induced
vascular repair (EBA assay) (LPS-challenged mice [3]; aged mice (21-22 mos. old), 0.2 mg/kg i.p. at 24 h and 48h post-LPS): normalized vascular repair
lung EBA flux (LPS-challenged mice [3]; [7]): no effect
vascular repair (EBA assay) (LPS-challenged mice [3]; young adult mice (3 mos. old), 0.2 mg/kg i.p. at 24 and 48h post-LPS): didn't promote
effect on sepsis-induced inflammatory lung injury (young adult mice): no effects

COC(=O)CNC(=O)C(=O)OC [DMOG, dimethyoxalylglycine]
increase of FoxM1 expression compared to either basal or non-treated mice (FoxM1; [8]): 3 fold
expression of TNF-α (TNF-α): markedly reduced
expression of IL-6 (IL-6; aged mice (21 mo. old), DMOG at 12 or 24h post-LPS, 72h post-LPS): markedly reduced
MPO activity (LPS-challenged mice [1]; [8]): returned to basal levels

Cc1nc(C(=O)NCC(=O)O)c(O)c2ccc(Oc3ccccc3)cc12 [FG-4592]
FoxM1 expression (FoxM1; [9]): induced FoxM1 expression
pro-inflammatory cytokine expression (pro-inflammatory genes): marked increase
MPO activity (LPS-challenged mice [1]; [9]): inhibited MPO activity
vascular repair (EBA flux) (LPS-challenged mice [3]; aged mice (21 mo. old), LPS 0.5 mg/kg i.p., 25 mg/kg oral at 24h post-LPS): normalized vascular repair

CC(=O)N[C@@H](CS)C(=O)O [NAC, N-Acetylcysteine]
expression of the proinflammatory gene 116 (IL-6; [10]): reduced to a level similar to young adult mice
MPO activity (LPS-challenged mice [1]; [10]): attenuated
TNF-α/CHX treatment-induced cell apoptosis [4]: markedly inhibited
ROS generation [5]: inhibited

Cl.Nc1ccc(/N=N/c2ccccc2)c(N)n1 [Phenazopyridine]
HIF activation in library screen (HIF-response element): activators
vascular repair (EBA flux) (LPS-challenged mice [3]; aged mice (22 mo. old), LPS 1.5 mg/kg i.p., treated at 6h and 24h post-LPS): promote vascular repair

COCCCOc1ccnc(C[S+]([O-])c2nc3ccccc3[nH]2)c1C (centres unmarked) [Rabeprazole]
increase of FoxM1 expression compared to either basal or LPS-treated mice (FoxM1; aged mice (22 mo. old), treated at 6h and 24h post-LPS, 72h post-LPS): 3-6 fold
increase of FoxM1 expression compared to either basal or LPS-treated mice (FoxM1; young adult mice 3-5 mos. old, 18 mg/kg oral at 6h and 24h post-LPS, 56h post-LPS): 3 fold
HIF activation in library screen (HIF-response element): activators
MPO activity (LPS-challenged mice [1]; aged mice (22 mo. old), LPS 1.5 mg/kg i.p., treated at 6h and 24h post-LPS, 72h post-LPS): returned to levels seen in basal mice
drug-induced vascular repair (EBA) in Foxm1 EC KO mice (LPS-challenged mice [3]; Foxm1 EC-specific knockout mice (3-5 mos. old), treated at 6h and 24h post-LPS, 52h post-LPS): inhibited
drug-induced vascular repair (EBA) in Hif1a KO mice (LPS-challenged mice [3]; Hif1a EC-specific knockout mice (4 mos. old), treated at 6h and 24h post-LPS, 52h post-LPS): inhibited

Oc1ccc(/C=C/c2cc(O)cc(O)c2)cc1 [Resveratrol, trans-E-resveratrol]
solubility [6]: poor solubility

NC(=O)C1CCCc2c1[nH]c1ccc(Cl)cc21 (centres unmarked) [Selisistat]
p53 acetylation (p53): Enhances
FoxM1 expression (FoxM1; [11]): reactivated FoxM1 expression
pIC50 (NADase): < 4.00
lung MPO activity (LPS-challenged mice [1]; [11]): returned to basal levels
pIC50 (HDAC): < 4.00
